Results from patent US20100168102A9, “Amide Derivatives as Kinase Inhibitors” (Devgen NV, priority 2005, published 2010).
Counter-ions that a name gives are not always drawn. Like-named read-outs stand apart in the source and are kept apart here.

Experiments:
human ROCKα/ROCKII mix = target: T1, human ROCKα/ROCKII mix (Homo sapiens, UniProt O75116); assay: Biochemical assay for ROCK (fluorescence polarization, ROCK IMAP Kit)
T1 construct: purchased Upstate Biotechnology 14-451

PKC epsilon = target: T2, PKC epsilon (Homo sapiens, UniProt Q02156); assay: Biochemical assay for PKC epsilon (fluorescence polarization, Protein Kinase C Assay Kit, Red)
T2 construct: purchased Invitrogen P2282
T2 sequence (Q02156 1-737): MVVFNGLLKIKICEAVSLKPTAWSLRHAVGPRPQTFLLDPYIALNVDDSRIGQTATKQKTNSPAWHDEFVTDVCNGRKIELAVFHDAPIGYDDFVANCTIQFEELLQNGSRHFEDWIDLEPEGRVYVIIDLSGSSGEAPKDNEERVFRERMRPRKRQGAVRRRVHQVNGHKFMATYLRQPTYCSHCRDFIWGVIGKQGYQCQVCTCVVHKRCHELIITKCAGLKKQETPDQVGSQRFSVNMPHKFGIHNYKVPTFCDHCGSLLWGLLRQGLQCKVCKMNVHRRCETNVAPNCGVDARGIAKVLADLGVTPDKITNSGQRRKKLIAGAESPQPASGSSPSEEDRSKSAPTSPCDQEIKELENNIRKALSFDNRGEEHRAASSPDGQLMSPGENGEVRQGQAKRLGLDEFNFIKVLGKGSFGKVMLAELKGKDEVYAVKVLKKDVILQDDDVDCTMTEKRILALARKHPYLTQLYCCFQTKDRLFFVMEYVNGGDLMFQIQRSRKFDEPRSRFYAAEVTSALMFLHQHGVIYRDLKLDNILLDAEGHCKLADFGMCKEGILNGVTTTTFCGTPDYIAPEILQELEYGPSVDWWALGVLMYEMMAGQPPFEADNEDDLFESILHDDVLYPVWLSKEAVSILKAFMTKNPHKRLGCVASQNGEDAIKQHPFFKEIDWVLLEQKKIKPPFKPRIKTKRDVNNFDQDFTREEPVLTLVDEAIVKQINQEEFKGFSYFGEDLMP
Outline: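 Read-out was fluorescence-polarization competition between phosphorylated substrate and a rhodamine PKC tracer for an anti-phosphoserine antibody, added with EDTA stop after an 80 min room-temperature kinase reaction with ATP and protein substrate (Mg2+/Ca2+ buffer). Enzyme (10 ng/ml final) was preincubated with compound for 30 min.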

[1] = Table 2, compounds of Formula XIII
[2] = Table 2, compounds of Formula XIII, read-out: IC50 μM PKCε
[3] = compounds of Formula XIV, Table 3
[4] = compounds of Formula XIV, Table 3, read-out: IC50 μM PKCε

T1 sequence (O75116 11-552 limits assumed): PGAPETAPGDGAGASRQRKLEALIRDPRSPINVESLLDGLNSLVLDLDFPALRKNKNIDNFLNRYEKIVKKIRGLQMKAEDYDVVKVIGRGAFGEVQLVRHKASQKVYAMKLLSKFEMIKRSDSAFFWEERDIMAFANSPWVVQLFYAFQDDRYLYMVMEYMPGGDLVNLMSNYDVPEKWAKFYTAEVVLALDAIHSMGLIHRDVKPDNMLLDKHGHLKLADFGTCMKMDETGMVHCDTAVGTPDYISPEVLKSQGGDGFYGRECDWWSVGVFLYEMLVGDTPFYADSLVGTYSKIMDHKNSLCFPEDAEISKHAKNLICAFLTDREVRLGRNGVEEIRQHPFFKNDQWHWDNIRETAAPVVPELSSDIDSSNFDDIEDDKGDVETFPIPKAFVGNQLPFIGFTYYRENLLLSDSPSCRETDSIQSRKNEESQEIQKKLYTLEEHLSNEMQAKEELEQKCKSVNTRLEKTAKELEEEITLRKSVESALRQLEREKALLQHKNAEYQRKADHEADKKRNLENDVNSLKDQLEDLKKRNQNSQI

Compound: COc1ccc(CC(=O)NCC(N)c2ccc(C(=O)Nc3ccncc3)cc2)cc1 (stereo not shown) [Compound 140, 4-{1-amino-2-[2-(4-methoxy-phenyl)-acetylamino]-ethyl}-N-pyridin-4-yl-benzamide]
- IC50 (human ROCKα/ROCKII mix; [1]): 0.05 to 0.5 µM
- IC50 (PKC epsilon; [2]): 5 to 50 µM

Compound: NC(CNC(=O)Cc1ccc2c(c1)OCO2)c1ccc(C(=O)Nc2ccncc2)cc1 (stereo not shown) [Compound 141, 4-{1-amino-2-(2-benzo[1,3]dioxol-5-yl-acetylamino)-ethyl]-N-pyridin-4-yl-benzamide]
- IC50 (human ROCKα/ROCKII mix; [1]): 0.05 to 0.5 µM
- IC50 (PKC epsilon; [2]): 5 to 50 µM

Compound: Cc1ccccc1CC(=O)NCC(N)c1ccc(C(=O)Nc2ccncc2)cc1 (stereo not shown) [Compound 142, 4-{1-Amino-2-[2-(2-methyl-phenyl)-acetylamino]-ethyl}-N-pyridin-4-yl-benzamide]
- IC50 (human ROCKα/ROCKII mix; [1]): 0.05 to 0.5 µM
- IC50 (PKC epsilon; [2]): 0.5 to 5 µM

Compound: Cc1cccc(CC(=O)NCC(N)c2ccc(C(=O)Nc3ccncc3)cc2)c1 (stereo not shown) [Compound 143, 4-{1-Amino-2-[2-(3-methyl-phenyl)-acetylamino]-ethyl}-N-pyridin-4-yl-benzamide]
- IC50 (human ROCKα/ROCKII mix; [1]): 0.05 to 0.5 µM
- IC50 (PKC epsilon; [2]): 0.5 to 5 µM

Compound: Cc1ccc(C)c(CC(=O)NCC(N)c2ccc(C(=O)Nc3ccncc3)cc2)c1 (stereo not shown) [Compound 144, 4-{1-Amino-2-[2-(2,5-dimethyl-phenyl)-aceylamino]-ethyl}-N-pyridin-4-yl-benzamide]
- IC50 (human ROCKα/ROCKII mix; [1]): 0.5 to 5 µM
- IC50 (PKC epsilon; [2]): 0.5 to 5 µM

Compound: Cc1ccc(CC(=O)NCC(N)c2ccc(C(=O)Nc3ccncc3)cc2)cc1 (stereo not shown) [Compound 145, 4-{1-Amino-2-[2-(4-methyl-phenyl)-acetylamino]-ethyl}-N-pyridin-4-yl-benzamide]
- IC50 (human ROCKα/ROCKII mix; [1]): 0.05 to 0.5 µM
- IC50 (PKC epsilon; [2]): 0.5 to 5 µM

Compound: NC(CNC(=O)Cc1ccc(-c2ccccc2)cc1)c1ccc(C(=O)Nc2ccncc2)cc1 (stereo not shown) [Compound 146, 4-[1-Amino-2-(2-biphenyl-4-yl-acetylamino)-ethyl]-N-pyridin-4-yl-benzamide]
- IC50 (human ROCKα/ROCKII mix; [1]): 0.5 to 5 µM
- IC50 (PKC epsilon; [2]): 5 to 50 µM

Compound: NC(CNC(=O)Cc1cccc(Cl)c1)c1ccc(C(=O)Nc2ccncc2)cc1 (stereo not shown) [Compound 147, 4-{1-Amino-2-[2-(3-chloro-phenyl)-acetylamino]-ethyl}-N-pyridin-4-yl-benzamide]
- IC50 (human ROCKα/ROCKII mix; [1]): 0.05 to 0.5 µM
- IC50 (PKC epsilon; [2]): 0.5 to 5 µM

Compound: NC(CNC(=O)Cc1ccc(F)cc1)c1ccc(C(=O)Nc2ccncc2)cc1 (stereo not shown) [Compound 148, 4-{1-Amino-2-[2-(4-fluoro-phenyl)-acetylamino]-ethyl}-N-pyridin-4-yl-benzamide]
- IC50 (human ROCKα/ROCKII mix; [1]): 0.05 to 0.5 µM
- IC50 (PKC epsilon; [2]): 0.05 to 0.5 µM

Compound: NC(CNC(=O)Cc1c(F)cccc1F)c1ccc(C(=O)Nc2ccncc2)cc1 (stereo not shown) [Compound 149, 4-{1-Amino-2-[2-(2,6-difluororo-phenyl)-acetylamino]-ethyl}-N-pyridin-4-yl-benzamide]
- IC50 (human ROCKα/ROCKII mix; [1]): 0.5 to 5 µM
- IC50 (PKC epsilon; IC50 μM PKCε, Table 2, compounds of Formula XIII): 0.5 to 5 µM

Compound: NC(CNC(=O)Cc1ccccn1)c1ccc(C(=O)Nc2ccncc2)cc1 (stereo not shown) [Compound 150, 4-[1-Amino-2-(2-pyridin-2-yl-acetylamino)-ethyl]-N-pyridin-4-yl-benzamide]
- IC50 (human ROCKα/ROCKII mix; [1]): 0.5 to 5 µM
- IC50 (PKC epsilon; [2]): 5 to 50 µM

Compound: NC(CNC(=O)Cc1ccncc1)c1ccc(C(=O)Nc2ccncc2)cc1 (stereo not shown) [Compound 151, 4-[1-Amino-2-(2-pyridin-4-yl-acetylamino)-ethyl]-N-pyridin-4-yl-benzamide]
- IC50 (human ROCKα/ROCKII mix; [1]): 0.5 to 5 µM
- IC50 (PKC epsilon; [2]): 5 to 50 µM

Compound: NC(CNC(=O)Cc1c[nH]c2ccccc12)c1ccc(C(=O)Nc2ccncc2)cc1 (stereo not shown) [Compound 152, 4-[1-Amino-2-(2-1H-indol-3-yl-acetylamino)-ethyl]-N-pyridin-4-yl-benzamide]
- IC50 (human ROCKα/ROCKII mix; [1]): 0.05 to 0.5 µM
- IC50 (PKC epsilon; [2]): 0.5 to 5 µM

Compound: NC(CNC(=O)Cc1cccs1)c1ccc(C(=O)Nc2ccncc2)cc1 (stereo not shown) [Compound 153, 4-[1-amino-2-(2-thiophen-2-yl-acetylamino)-ethyl]-N-pyridin-4-yl-benzamide]
- IC50 (human ROCKα/ROCKII mix; [1]): 0.05 to 0.5 µM
- IC50 (PKC epsilon; [2]): 0.5 to 5 µM

Compound: NC(CNC(=O)Cc1csc(-c2ccccc2)n1)c1ccc(C(=O)Nc2ccncc2)cc1 (stereo not shown) [Compound 154, 4-{1-Amino-2-[2-(2-phenyl-thiazol-4-yl)-acetylamino]-ethyl}-N-pyridin-4-yl-benzamide]
- IC50 (human ROCKα/ROCKII mix; [1]): 0.05 to 0.5 µM
- IC50 (PKC epsilon; [2]): 5 to 50 µM

Compound: NC(CNC(=O)Cc1csc(Nc2ccccc2)n1)c1ccc(C(=O)Nc2ccncc2)cc1 (stereo not shown) [Compound 155, 4-{1-Amino-2-[2-(2-phenylamino-thiazol-4-yl)-acetylamino]-ethyl}-N-pyridin-4-yl-benzamide]
- IC50 (human ROCKα/ROCKII mix; [1]): 0.5 to 5 µM
- IC50 (PKC epsilon; [2]): 0.5 to 5 µM

Compound: NC(CNC(=O)COc1ccccc1)c1ccc(C(=O)Nc2ccncc2)cc1 (stereo not shown) [Compound 156, 4-[1-Amino-2-(2-phenoxy-acetylamino)-ethyl]-N-pyridin-4-yl-benzamide]
- IC50 (human ROCKα/ROCKII mix; [1]): 0.05 to 0.5 µM
- IC50 (PKC epsilon; [2]): 0.05 to 0.5 µM

Compound: NC(CNC(=O)COc1ccc(F)cc1)c1ccc(C(=O)Nc2ccncc2)cc1 (stereo not shown) [Compound 157, 4-{1-Amino-2-[2-(4-fluoro-phenoxy)-acetylamino]-ethyl}-N-pyridin-4-yl-benzamide]
- IC50 (human ROCKα/ROCKII mix; [1]): 0.05 to 0.5 µM
- IC50 (PKC epsilon; [2]): 0.05 to 0.5 µM

Compound: CCC(Oc1ccccc1)C(=O)NCC(N)c1ccc(C(=O)Nc2ccncc2)cc1 (stereo not shown) [Compound 158, 4-[1-Amino-2-(2-phenoxy-butyrylamino)-ethyl]-N-pyridin-4-yl-benzamide]
- IC50 (human ROCKα/ROCKII mix; [1]): 0.05 to 0.5 µM
- IC50 (PKC epsilon; [2]): 0.5 to 5 µM

Compound: Cc1cc(Cl)ccc1OC(C)C(=O)NCC(N)c1ccc(C(=O)Nc2ccncc2)cc1 (stereo not shown) [Compound 159, 4-{1-Amino-2-[2-(4-chloro-2-methyl-phenoxy)-propionylamino]-ethyl}-N-pyridin-4-yl-benzamide]
- IC50 (human ROCKα/ROCKII mix; [1]): 0.05 to 0.5 µM
- IC50 (PKC epsilon; [2]): 0.5 to 5 µM

Compound: NC(CNC(=O)CC(c1ccccc1)c1ccccc1)c1ccc(C(=O)Nc2ccncc2)cc1 (stereo not shown) [Compound 160, 4-[1-Amino-2-(3,3-diphenyl-propionylamino)-ethyl]-N-pyridin-4-yl-benzamide]
- IC50 (human ROCKα/ROCKII mix; [1]): 0.05 to 0.5 µM
- IC50 (PKC epsilon; [2]): 5 to 50 µM

Compound: NC(CNC(=O)C1Cc2ccccc21)c1ccc(C(=O)Nc2ccncc2)cc1 (stereo not shown) [Compound 161, Bicyclo[4.2.0]octa-1,3,5-triene-7-carboxylic acid {2-amino-2-[4-(pyridin-4-ylcarbamoyl)-phenyl]-ethyl}-amide]
- IC50 (human ROCKα/ROCKII mix; [1]): 0.05 to 0.5 µM
- IC50 (PKC epsilon; [2]): 0.5 to 5 µM

Compound: NC(CNC(=O)CCc1ccccc1)c1ccc(C(=O)Nc2ccncc2)cc1 (stereo not shown) [Compound 162]
- IC50 (human ROCKα/ROCKII mix; [1]): 0.05 to 0.5 µM
- IC50 (PKC epsilon; [2]): 0.5 to 5 µM

Compound: NC(CNC(=O)CCc1ccc(F)cc1)c1ccc(C(=O)Nc2ccncc2)cc1 (stereo not shown) [Compound 163, 4-{1-amino-2-[3-(4-fluoro-phenyl)-propionylamino]-ethyl}-N-pyridin-4-yl-benzamide]
- IC50 (human ROCKα/ROCKII mix; [1]): 0.05 to 0.5 µM
- IC50 (PKC epsilon; [2]): 0.05 to 0.5 µM

Compound: NC(CNC(=O)C1CCc2ccccc2C1)c1ccc(C(=O)Nc2ccncc2)cc1 (stereo not shown) [Compound 164, 1,2,3,4-Tetrahydro-naphtalene-2-carboxylic acid {2-amino-2-[4-(pyridin-4-ylcarbamoyl)-phenyl]-ethyl}-amide]
- IC50 (human ROCKα/ROCKII mix; [1]): 0.5 to 5 µM
- IC50 (PKC epsilon; [2]): 0.5 to 5 µM

Compound: CC1=C(C(=O)NCC(N)c2ccc(C(=O)Nc3ccncc3)cc2)Cc2ccccc21 (stereo not shown) [Compound 165, 3-Methyl-1H-indene-2-carboxylic acid {2-amino-2-[4-(pyridin-4-ylcarbamoyl)-phenyl]-ethyl}-amide]
- IC50 (human ROCKα/ROCKII mix; [1]): 0.5 to 5 µM
- IC50 (PKC epsilon; [2]): 0.5 to 5 µM

Compound: NC(CNC(=O)CCc1cccnc1)c1ccc(C(=O)Nc2ccncc2)cc1 (stereo not shown) [Compound 166, 4-[1-Amino-2-(3-pyridin-3-yl-propionylamino)-ethyl]-N-pyridin-4-yl-benzamide]
- IC50 (human ROCKα/ROCKII mix; [1]): 0.5 to 5 µM
- IC50 (PKC epsilon; [2]): 5 to 50 µM

Compound: NC(CNC(=O)Cc1ccc(F)c(F)c1)c1ccc(C(=O)Nc2ccncc2)cc1 (stereo not shown) [Compound 167, 4-{1-Amino-2-[2-(3,4-difluoro-phenyl)-acetylamino]-ethyl}-N-pyridin-4-yl-benzamide dihydrochloride]
- IC50 (human ROCKα/ROCKII mix; [1]): 0.05 to 0.5 µM
- IC50 (PKC epsilon; [2]): 0.05 to 0.5 µM

Compound: CCNC(=O)CC(N)c1ccc(C(=O)Nc2ccncc2)cc1 (stereo not shown) [Compound 169]
- IC50 (human ROCKα/ROCKII mix; [3]): 0.05 to 0.5 µM
- IC50 (PKC epsilon; [4]): 0.5 to 5 µM

Compound: CC(C)C(C)NC(=O)CC(N)c1ccc(C(=O)Nc2ccncc2)cc1 (stereo not shown) [Compound 170, 4-[1-amino-2-(1,2-dimethyl-propylcarbamoyl)-ethyl]-N-pyridin-4-yl-benzamide]
- IC50 (human ROCKα/ROCKII mix; [3]): 0.05 to 0.5 µM
- IC50 (PKC epsilon; [4]): 0.5 to 5 µM

Compound: CN(C)CCNC(=O)CC(N)c1ccc(C(=O)Nc2ccncc2)cc1 (stereo not shown) [Compound 174, 4-[1-amino-2-(2-dimethylamino-ethylcarbamoyl)-ethyl]-N-pyridin-4-yl-benzamide]
- IC50 (human ROCKα/ROCKII mix; [3]): 0.05 to 0.5 µM
- IC50 (PKC epsilon; [4]): 0.5 to 5 µM

Compound: CC(=O)NCCNC(=O)CC(N)c1ccc(C(=O)Nc2ccncc2)cc1 (stereo not shown) [Compound 175, 4-[2-(2-acetylamino-ethylcaramoyl)-1-amino-ethyl]-N-pyridin-4-yl-benzamide]
- IC50 (human ROCKα/ROCKII mix; [3]): 0.05 to 0.5 µM
- IC50 (PKC epsilon; [4]): 0.5 to 5 µM
